Test: in vitro
Conditions: human

For `Nc1nc2[nH]cc(CCc3ccc(C(=O)N[C@@H](CCC(=O)O)C(=O)O)cc3)c2c(=O)[nH]1` [pemetrexed], the CC50 was at least 74 mg/L.
